Assay results as given in paper PMC5292991, “Drug trapping in hERG K^+ channels: (not) a matter of drug size?” (Medchemcomm, 2015).

Target: T1, hERG K+ channel (Kv11.1) (Homo sapiens, UniProt Q12809)
T1 construct: gene KCNH2
Assay: two-microelectrode voltage clamp, hERG tail current inhibition in Xenopus oocytes; alanine mutants Y652A and F656A reduce block
Format: cell-based

T1 sequence (Q12809 whole entry): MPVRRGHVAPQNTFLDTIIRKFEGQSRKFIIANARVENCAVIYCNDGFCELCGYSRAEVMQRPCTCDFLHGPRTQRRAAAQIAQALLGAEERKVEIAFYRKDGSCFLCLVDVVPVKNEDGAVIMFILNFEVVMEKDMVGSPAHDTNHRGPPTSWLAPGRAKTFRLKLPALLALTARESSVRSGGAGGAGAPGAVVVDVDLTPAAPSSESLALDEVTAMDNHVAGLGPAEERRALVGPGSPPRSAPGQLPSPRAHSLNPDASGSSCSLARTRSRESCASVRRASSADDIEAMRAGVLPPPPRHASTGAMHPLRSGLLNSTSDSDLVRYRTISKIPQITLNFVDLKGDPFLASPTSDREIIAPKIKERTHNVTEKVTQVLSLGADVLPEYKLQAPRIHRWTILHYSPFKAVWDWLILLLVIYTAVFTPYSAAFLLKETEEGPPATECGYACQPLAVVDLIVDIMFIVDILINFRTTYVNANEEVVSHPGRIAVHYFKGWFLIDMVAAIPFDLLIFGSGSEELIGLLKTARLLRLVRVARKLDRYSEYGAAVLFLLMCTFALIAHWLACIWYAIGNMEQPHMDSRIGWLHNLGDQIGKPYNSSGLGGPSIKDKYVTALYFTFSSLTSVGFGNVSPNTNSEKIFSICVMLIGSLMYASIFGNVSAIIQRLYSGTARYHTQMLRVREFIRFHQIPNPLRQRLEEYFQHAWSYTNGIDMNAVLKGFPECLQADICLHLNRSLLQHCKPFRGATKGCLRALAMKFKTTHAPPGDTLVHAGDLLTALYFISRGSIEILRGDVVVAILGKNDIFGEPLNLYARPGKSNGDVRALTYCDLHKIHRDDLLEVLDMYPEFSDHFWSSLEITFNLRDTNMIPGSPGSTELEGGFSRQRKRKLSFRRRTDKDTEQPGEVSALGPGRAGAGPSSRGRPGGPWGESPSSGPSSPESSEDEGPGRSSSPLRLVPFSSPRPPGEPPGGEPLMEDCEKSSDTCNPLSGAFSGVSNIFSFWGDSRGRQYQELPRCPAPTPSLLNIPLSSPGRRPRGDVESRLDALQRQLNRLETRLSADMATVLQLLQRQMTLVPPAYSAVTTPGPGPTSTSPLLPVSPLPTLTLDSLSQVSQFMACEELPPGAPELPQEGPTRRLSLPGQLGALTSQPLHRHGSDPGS

## O=C(CCc1ccccc1)c1ccccc1OCC(O)CN1CCN(C(c2ccccc2)(c2ccccc2)c2ccccc2)CC1 (stereo not shown) [FB213, 1-[2-(2-hydroxy-3-(4-tritylpiperazin-1-yl)-propoxy)phenyl]-3-phenylpropan-1-one]
  IC50: 47.1 ± 5.1 µM
